Read-outs that look alike come from different tables or passages of the source.
Columns and labels:
MCF7 cells = assay: crystal violet assay, cellular viability; assay type: cell-based, human; conditions: for IC50: MCF7, 48 h, read-out: IC50 cellular viability; for viability at 10 µM: MCF7, 10 μM
Procedure: (§1) Compound 1 and compound 2 were tested in their efficacy to kill malignant MCF7 cancer cells. Briefly, 10.000 cells per well were seeded in a 96-well plat on one day and the next day selected compounds were added and incubated with the cells for 48 hrs. The cells were then fixed with 4% paraformaldehyde, stained with 0.05% crystal violet, washed with PBS, and solubilized in 1% SDS. The absorbance of the plate at 595 nm was then measured, quantifying the number of viable cells.
(§2) A number of compounds of the present invention were tested for cytotoxicity towards at least some of human breast cancer cell lines (MCF7, MDA-MB-231), human fibroblast (BJ) and murine triple negative breast cancer cell line 4T1 (Table 2).

[1] = system: human mammary gland cancer cell line MDA-MB-231; assay: dose-effect relationship of drugs and mixtures, crystal violet assay, Median-Effect / Combination index; assay type: cell-based; conditions: for IC50 / Median-Effect Plot parameter m (slope): MDA-MB-231, crystal violet, 48 hours; for IC50: Chou-Talalay method, read-out: Median-Effect Plot parameter IC50; for concentration of the cytostatic at IC75, cytostatic alone: MDA-MB-231
Procedure: (§3) The potentiation of cytotoxic effect of compound 2 in combination with several cytostatics was evaluated. The dose-effect relationship of individual drugs and mixtures of compound 2 with paclitaxel, cis Pt (cis-platin), doxorubicin and fluorouracil was determined on human mammary gland cancer cell line MDA-MB-231 and pancreatic cell line BxPC3 by means of crystal violet assay. The linearized Median-Effect Plot of dose response line provided both parameters (IC50; trend line m(slope) value) of Median-Effect Equation for individual and combination treatment [ref: Theoretical basis, experimental design, and computerized simulation of synergism and antagonism in drug combination studies; Ting-Chao Chou: Pharmacol Rev. 58(3), 2006, 621-81; Erratum in Pharmacol Rev. 2007; 59(1), 124]:
(§4) Potentiation of combination effect of compound 2 was expressed for concentrations IC50, IC75, IC90, IC95 by calculation of Combination index (CI) applying Combination Index Theorem for mutually exclusive drugs. Overall CI was expressed by means of weighted average of IC50, IC75, IC90, IC95 [ref: Quantitative analysis of dose-effect relationships: the combined effects of multiple drugs or enzyme inhibitors; Ting-Chao Chou, Paul Talalay: Advances in Enzyme Regulation, Volume 22, 1984, Pages 27-55]: […]

[2] = system: murine triple negative breast cancer cell line 4T1; assay: crystal violet assay, cellular viability; assay type: cell-based; conditions: Mus musculus, 4T1, 48 hours
Procedure: as §1, §2

BT474 cells = assay: crystal violet assay, cellular viability; assay type: cell-based; conditions: crystal violet
MDA-MB-231 cells = assay: crystal violet assay, cellular viability; assay type: cell-based, human; conditions: for mean percentage of surviving cells compared to non-treated controls: crystal violet
Procedure: as §1, §2

[3] = system: pancreatic cell line BxPC3; assay: dose-effect relationship of drugs and mixtures, crystal violet assay, Median-Effect / Combination index; assay type: cell-based; conditions: for IC50: read-out: Median-Effect Plot parameter IC50
Procedure: as §3, §4

non malignant cells (BJ) = assay: AnnexinV/PI cell death assay; assay type: cell-based; conditions: ratio Ga:compound 2 1:0, 5 μM gallium salt alone
Procedure: To confirm such findings by an independent method, cell death-inducing potency (cytotoxic efficacy) of DFO and compound 2 have been tested via annexin V/PI staining commonly used as a measure of apoptotic/necrotic cell death. Briefly, cells were seeded in 12-well plate at 100,000 per well, incubated with the selected compounds for 48 hours, then floating cells were spun, adherent cells trypsinized and spun as well followed by the staining with AnnexinV-FITC and PI probes. Cells were then washed with PBS and measured via Fluorescence Activated Sorter.
We have then analyzed the percentage of death cells by the annexinV/PI staining as described in example 7. We have observed a significant potentiation in cell death induction when gallium was combined with compound 2 (Table 14)

[4] = Homo sapiens, 48 hrs, crystal violet, read-out: mean percentage of viable cells compared to non-treated controls

CC(=O)N(O)CCCCCNC(=O)CCC(=O)N(O)CCCCCNC(=O)CCC(=O)N(O)CCCCCNCCCCCCCCCC[P+](c1ccccc1)(c1ccccc1)c1ccccc1 [Compound 1, Triphenyl(3,14,25-trihydroxy-2,10,13,21,24-pentaoxo-3,9,14,20,25,31-hexaazahentetracontan-41-yl) phosphonium chloride] gave an IC50 (MCF7 cells; Homo sapiens, crystal violet) of 2.2 µM, a viability at 1 µM (MCF7 cells; Homo sapiens, MCF7, 1 μM, 48 hrs, crystal violet, read-out: mean percentage of viable cells compared to non-treated controls) of 83.3% and a viability at 2 µM (MCF7 cells; Homo sapiens, MCF7, 2 μM, 48 hrs, crystal violet, read-out: mean percentage of viable cells compared to non-treated controls) of 48.2%. The viability at 5 µM (MCF7 cells; Homo sapiens, MCF7, 5 μM, 48 hrs, crystal violet, read-out: mean percentage of viable cells compared to non-treated controls) was 15.2% and the viability at 10 µM (MCF7 cells; [4]) was 11.9%.
Compound CC(=O)ON(CCCCCNC(=O)CCC(=O)N(CCCCCNC(=O)CCC(=O)N(CCCCCN(CCCCCCCCCC[P+](c1ccccc1)(c1ccccc1)c1ccccc1)CCCCCCCCCC[P+](c1ccccc1)(c1ccccc1)c1ccccc1)OC(C)=O)OC(C)=O)C(C)=O [Compound 16, (15,26-diacetoxy-4-acetyl-2,11,14,22,25-pentaoxo-32-(10-(triphenylphosphonio)decyl)-3-oxa-4,10,15,21,26,32-hexaazadotetracontan-32-ium-42-yl)triphenylphosphonium trichloride] has an IC50 (MCF7 cells; Homo sapiens) of 0.8 µM.
In the case of CC(=O)O[C@H]1C(=O)[C@@]2(C)[C@H]([C@H](OC(=O)c3ccccc3)[C@]3(O)C[C@H](OC(=O)[C@H](O)[C@@H](NC(=O)c4ccccc4)c4ccccc4)C(C)=C1C3(C)C)[C@]1(OC(C)=O)CO[C@@H]1C[C@@H]2O [paclitaxel], the IC50 ([1]; Homo sapiens) is reported as 0.0189 µM, the “concentration of the cytostatic at IC75, cytostatic alone” value (“concentration of the cytostatic at IC75” for short) [1] is reported as 0.1420 µM and the “Median-Effect Plot parameter m (slope)” value [1] is reported as 0.5451.
CCCCCCCCCCCCCCCC(=O)ON(CCCCCNC(=O)CCC(=O)N(CCCCCNC(=O)CCC(=O)N(CCCCCN(CCCCCCCCCC[P+](c1ccccc1)(c1ccccc1)c1ccccc1)CCCCCCCCCC[P+](c1ccccc1)(c1ccccc1)c1ccccc1)OC(=O)CCCCCCCCCCCCCCC)OC(=O)CCCCCCCCCCCCCCC)C(C)=O [Compound 17, (39-acetyl-18,21,29,32,41-pentaoxo-17,28-bis(palmitoyloxy)-11-(10-(triphenylphosphonio)decyl)-40-oxa-11,17,22,28,33,39-hexaazahexapentacontyl)triphenylphosphonium trichloride] gave an IC50 (MCF7 cells; Homo sapiens, crystal violet) of 0.7 µM.
For COc1cccc2c1C(=O)c1c(O)c3c(c(O)c1C2=O)C[C@@](O)(C(=O)CO)C[C@@H]3O[C@H]1C[C@H](N)[C@H](O)[C@H](C)O1 [doxorubicin], the IC50 ([1]; Homo sapiens) was 0.319 µM, the “concentration of the cytostatic at IC75” value [1] was 3.5789 µM and the “Median-Effect Plot parameter m (slope)” value [1] was 0.4543.
With CC(=O)N(O)CCCCCNC(=O)CCC(=O)N(O)CCCCCNC(=O)CCC(=O)N(O)CCCCCN(Cc1cnnn1CCCCCCCCCC[P+](c1ccccc1)(c1ccccc1)c1ccccc1)Cc1cnnn1CCCCCCCCCC[P+](c1ccccc1)(c1ccccc1)c1ccccc1 [Compound 20, Triphenyl(10-(5-(8,19,30-trihydroxy-9,12,20,23,31-pentaoxo-2-((1-(10-(triphenylphosphonio)decyl)-1H-1,2,3-triazol-5-yl)methyl)-2,8,13,19,24,30-hexaazadotriacontyl)-1H-1,2,3-triazol-1-yl)decyl)phosphonium] the IC50 [2] was 2.2 µM.
CC(=O)N(O)CCCCCNC(=O)CCC(=O)N(O)CCCCCNC(=O)CCC(=O)N(O)CCCCCN(CCCCCC[P+](c1ccccc1)(c1ccccc1)c1ccccc1)CCCCCC[P+](c1ccccc1)(c1ccccc1)c1ccccc1.[Cl-].[Cl-] [compound 3, Triphenyl(3,14,25-trihydroxy-2,10,13,21,24-pentaoxo-31-(6-(triphenylphosphonio)hexyl)-3,9,14,20,25,31-hexaazaheptatriacontan-37-yl)phosphonium chloride] was tested, and the “mean percentage of surviving cells compared to non-treated controls” value (“mean percentage … to non-treated controls” below) (BT474 cells; BT474, 4 μM) was 101.7%, the “mean percentage … to non-treated controls” value (BT474 cells; BT474, 6 μM) was 109.1% and the “mean percentage … to non-treated controls” value (BT474 cells; BT474, 8 μM) was 104.1%. For the same compound, the “mean percentage … to non-treated controls” value (BT474 cells; BT474, 10 μM) was 99.2%, the “mean percentage … to non-treated controls” value (BT474 cells; BT474, 20 μM) was 91.5% and the “mean percentage … to non-treated controls” value (BT474 cells; BT474, 40 μM) was 74.2%. For the same compound, the “mean percentage … to non-treated controls” value (BT474 cells; BT474, 60 μM) was 58.9%, the “mean percentage … to non-treated controls” value (BT474 cells; BT474, 80 μM) was 49.6% and the “mean percentage … to non-treated controls” value (BT474 cells; BT474, 100 μM) was 47.8%. The IC50 (BT474 cells; Homo sapiens, BT-474, BT474, 48 hours, read-out: IC50 cellular viability) was 83.5 µM, the IC50 (MDA-MB-231 cells; Homo sapiens, MDA-MB-231, 48 h, read-out: IC50 cellular viability) was 232 µM and the “mean percentage … to non-treated controls” value (MDA-MB-231 cells; MDA-MB-231, 4 μM) was 97.7%. For the same compound, the “mean percentage … to non-treated controls” value (MDA-MB-231 cells; MDA-MB-231, 6 μM) was 95.3%, the “mean percentage … to non-treated controls” value (MDA-MB-231 cells; MDA-MB-231, 8 μM) was 103.1% and the “mean percentage … to non-treated controls” value (MDA-MB-231 cells; MDA-MB-231, 10 μM) was 97.4%. For the same compound, the “mean percentage … to non-treated controls” value (MDA-MB-231 cells; MDA-MB-231, 20 μM) was 98.9%, the “mean percentage … to non-treated controls” value (MDA-MB-231 cells; MDA-MB-231, 40 μM) was 91.3% and the “mean percentage … to non-treated controls” value (MDA-MB-231 cells; MDA-MB-231, 60 μM) was 86.5%. For the same compound, the “mean percentage … to non-treated controls” value (MDA-MB-231 cells; MDA-MB-231, 80 μM) was 77.2%, the “mean percentage … to non-treated controls” value (MDA-MB-231 cells; MDA-MB-231, 100 μM) was 76.0% and the IC50 (MCF7 cells; Homo sapiens, crystal violet) was 70.4 µM. For the same compound, the viability at 10 µM (MCF7 cells; [4]) was 93.9%, the “mean percentage … to non-treated controls” value (MCF7 cells; MCF7, 4 μM, crystal violet) was 100.4% and the “mean percentage … to non-treated controls” value (MCF7 cells; MCF7, 6 μM, crystal violet) was 99.1%. For the same compound, the “mean percentage … to non-treated controls” value (MCF7 cells; MCF7, 8 μM, crystal violet) was 98.2%, the “mean percentage … to non-treated controls” value (MCF7 cells; MCF7, 20 μM, crystal violet) was 84.0% and the “mean percentage … to non-treated controls” value (MCF7 cells; MCF7, 40 μM, crystal violet) was 74.6%. The “mean percentage … to non-treated controls” value (MCF7 cells; MCF7, 60 μM, crystal violet) was 55.2%, the “mean percentage … to non-treated controls” value (MCF7 cells; MCF7, 80 μM, crystal violet) was 43.2% and the “mean percentage … to non-treated controls” value (MCF7 cells; MCF7, 100 μM, crystal violet) was 37.9%.
With CCCCCCCC[P+](CCCCCCCC)(CCCCCCCC)CCCCCCCCCCNCCCCCN(O)C(=O)CCC(=O)NCCCCCN(O)C(=O)CCC(=O)NCCCCCN(O)C(C)=O [Compound 11, 3,14,25-trihydroxy-42,42-dioctyl-2,10,13,21,24-pentaoxo-3,9,14,20,25,31-hexaaza-42-phosphapentacontane-31,42-diium dichloride] the IC50 (MCF7 cells; Homo sapiens, crystal violet) was 4 µM.
For N.N.[Cl][Pt][Cl] [cis Pt, cis-platin], the “Median-Effect Plot parameter m (slope)” value ([3]; 48 hours) was 1.59, the IC50 ([3]; 48 hours) was 4.18 µM and the “concentration of the cytostatic at IC75” value [1] was 42.2751 µM. The “Median-Effect Plot parameter m (slope)” value [1] was 1.4574 and the IC50 [1] was 21.8 µM.
O=[N+]([O-])[O-].O=[N+]([O-])[O-].O=[N+]([O-])[O-].[Ga+3] [Ga(NO3)2, gallium nitrate, reference compound] was tested, and the “percentage of death cells by annexinV/PI staining” value (non malignant cells (BJ)) was 14.45 (5.6).
For O=c1[nH]cc(F)c(=O)[nH]1 [Fluorouracil, fluorouracil], the “Median-Effect Plot parameter m (slope)” value ([3]; 48 hours) was 0.33, the IC50 ([3]; 48 hours) was 48.3 µM and the IC50 ([3]; Homo sapiens, BXPC-3, 48 h) was 48.3 µM.
CC(=O)N(O)CCCCCNC(=O)CCC(=O)N(O)CCCCCNC(=O)CCC(=O)N(O)CCCCCN(CCCCOCCCCCCCCCC[P+](c1ccccc1)(c1ccccc1)c1ccccc1)CCCCOCCCCCCCCCC[P+](c1ccccc1)(c1ccccc1)c1ccccc1 [Compound 15, 3-(diphenyl(3,14,25-trihydroxy-2,10,13,21,24-pentaoxo-31-(4-((10-(triphenylphosphonio)decyl)oxy)butyl)-36-oxa-3,9,14,20,25,31-hexaazahexatetracontan-31-ium-46-yl)phosphonio)benzen-1-ide trichloride] gave an IC50 (MCF7 cells; Homo sapiens, crystal violet) of 0.5 µM.
